Assay results taken from ChEMBL document CHEMBL5344416, “Phenothiazines as anti-cancer agents: SAR overview and synthetic strategies” (Eur J Med Chem, 2023).
Blank lines part the entries; values can stand above or below the compound they belong to.

Key:
[1] = system: SNB-19; test: Antiproliferative activity against human SNB-19 cells assessed as reduction in cell proliferation incubated for 72 hrs by WST-1 assay; assay type: functional, cell-based; details: SNB-19, 72 h
[2] = system: MDA-MB-231; test: Antiproliferative activity against human MDA-MB-231 cells assessed as reduction in cell proliferation incubated for 72 hrs by WST-1 assay; assay type: functional, cell-based; details: MDA-MB-231, 72 h
[3] = system: TC-32; test: Antiproliferative activity against human TC-32 cells assessed as reduction in cell proliferation incubated for 72 hrs by WST-1 assay; assay type: functional, cell-based; details: TC-32, 72 h
[4] = Antiproliferative activity against human Lovo/DX cells assessed as reduction in cell viability; assay type: functional, cell-based
[5] = system: LoVo; test: Antiproliferative activity against human LoVo cells assessed as reduction in cell viability incubated for 48 hrs by MTT assay; assay type: functional, cell-based
[6] = Cytotoxicity against human Lovo/DX cells assessed as reduction in cell viability incubated for 72 hrs by MTT assay; assay type: functional
[7] = system: LoVo; test: Cytotoxicity against human LoVo cells assessed as reduction in cell viability incubated for 72 hrs by MTT assay; assay type: functional
[8] = system: SW1990; test: Cytotoxicity against human SW1990 cells measured after 8 days; assay type: functional, cell-based; details: SW1990, 192 h
[9] = system: BXPC-3; test: Cytotoxicity against human BXPC-3 cells assessed as reduction in cell viability incubated for 72 hrs by MTT assay; assay type: functional, cell-based; details: BXPC-3, 72 h
[10] = system: ASPC1; test: Cytotoxicity against human ASPC1 cells assessed as reduction in cell viability incubated for 24 hrs by MTT assay; assay type: functional, cell-based; details: ASPC1, 24 h
[11] = system: PANC-1; test: Cytotoxicity against human PANC-1 cells assessed as cell growth inhibition incubated for 48 hrs by WST-1 assay; assay type: functional, cell-based; details: PANC-1, 48 h
[12] = system: MRC5; test: Cytotoxicity against human MRC5 cells assessed as reduction in cell growth incubated for 48 hrs by CCK8 assay; assay type: functional, cell-based; details: MRC5, 48 h
[13] = system: SNB-19; test: Anticancer activity against human SNB-19 cells assessed as reduction in cell growth incubated for 48 hrs by SRB assay; assay type: functional, cell-based; details: SNB-19, 48 h
[14] = system: MDA-MB-231; test: Anticancer activity against human MDA-MB-231 cells assessed as reduction in cell viability measured after 72 hrs by MTT assay; assay type: functional, cell-based; details: MDA-MB-231, 72 h
[15] = system: TC-32; test: Anticancer activity against human TC-32 cells assessed as reduction in cell growth incubated for 48 hrs by SRB assay; assay type: functional, cell-based; details: TC-32, 48 h
[16] = system: THP-1; test: Antiproliferative activity against human THP-1 cells assessed as cell growth inhibition measured after 24 hrs by MTT assay; assay type: functional, cell-based; details: THP-1, 24 h
[17] = system: HL-60; test: Antiproliferative activity against human HL-60 cells assessed as cell growth inhibition measured after 24 hrs by MTT assay; assay type: functional, cell-based; details: HL-60, 24 h
[18] = Antiproliferative activity against human PBMC cells assessed as reduction in cell viability measured after 24 hrs by MTT assay; assay type: functional, cell-based
[19] = system: MCF7; test: Antitumor activity against human MCF7 cells assessed as inhibition of cell growth at 1000 ug measured after 48 hrs by spectrophotometric analysis relative to control; assay type: functional; parameters: scale not given: the % may be the effect or the level left; details: dose 1000 µg
[20] = system: MCF7; test: Antitumor activity against human MCF7 cells assessed as increase in LDH level at 1000 ug relative to control; assay type: functional; details: dose 1000 µg
[21] = system: CT26; test: Antitumor activity against mouse CT26 cells assessed as tumor growth inhibition incubated for 4 hrs by MTT assay relative to control; assay type: functional; parameters: scale not given: the % may be the effect or the level left
[22] = system: CT26; test: Antitumor activity against mouse CT26 cells assessed as reduction in cell viability incubated for 4 hrs by MTT assay; assay type: functional, cell-based; details: CT26, 4 h
[23] = system: SW1990; test: Antiproliferative activity against human SW1990 cells assessed as reduction in cell viability; assay type: functional, cell-based
[24] = system: ASPC1; test: Antiproliferative activity against human AsPC1 cells assessed as inhibition of cell proliferation incubated for 6 days by CCK8 assay; assay type: functional, cell-based; details: ASPC1, 144 h
[25] = system: CWR22R; test: Antiproliferative activity against human 22Rv1 cells assessed as cell viability incubated for 96 hrs by Cell-Titer Glo assay; assay type: functional, cell-based; details: 22Rv1, 96 h
[26] = system: RAW264.7; test: Cytotoxicity against mouse RAW264.7 cells assessed as reduction in cell viability incubated for 72 hrs; assay type: functional, cell-based; details: RAW264.7, 72 h
[27] = system: HepG2; test: Cytotoxicity against human HepG2 cells assessed as reduction in cell viability incubated for 48 hrs by MTT assay; assay type: functional, cell-based; details: HepG2, 48 h
[28] = system: MCF7; test: Cytotoxicity against human MCF7 cells assessed as cell growth inhibition measured after 48 hrs by MTT assay; assay type: functional, cell-based; details: MCF7, 48 h
[29] = system: HSC-3; test: Cytotoxicity against human HSC-3 cells assessed as reduction in cell viability incubated for 48 hrs by MTT assay; assay type: functional
[30] = system: HSC-4; test: Cytotoxicity against human HSC-4 cells assessed as reduction in cell viability incubated for 48 hrs by MTT assay; assay type: functional
[31] = system: HSC-2; test: Cytotoxicity against human HSC-2 cells assessed as reduction in cell viability measured after 48 hrs by MTT assay; assay type: functional
[32] = system: MDA-MB-231; test: Antiproliferative activity against human MDA-MB-231 cells assessed as reduction in cell viability incubated for 72 hrs by WST-1 assay; assay type: functional, cell-based; details: MDA-MB-231, 72 h
[33] = system: SNB-19; test: Anticancer activity against human SNB-19 cells assessed as reduction in cell proliferation incubated for 72 hrs by WST-1 assay; assay type: functional, cell-based; details: SNB-19, 72 h
[34] = system: Caco-2; test: Cytotoxicity against human Caco-2 cells assessed as reduction in cell proliferation incubated for 72 hrs by WST-1 assay; assay type: functional, cell-based; details: Caco-2, 72 h
[35] = system: A549; test: Antiproliferative activity against human A549 cells assessed as reduction in cell viability incubated for 72 hrs by WST-1 assay; assay type: functional, cell-based; details: A549, 72 h
[36] = system: NHDF; test: Cytotoxicity against human NHDF cells assessed as reduction in cell viability incubated for 72 hrs by WST-1 assay; assay type: functional, cell-based

- IC50 [2]: 2.13 µM
Compound: CCN(CC)CCN1c2ncccc2Sc2cccnc21
- IC50 [1]: 0.33 µM
- IC50 [3]: 14.4 µM

- IC50 [5]: 50 µM
Compound: OCCOCCN1CCN(CC(O)CN2c3ccccc3Sc3ccc(C(F)(F)F)cc32)CC1 (stereo unspecified)
- IC50 [4]: 20 µM
- IC20 [6]: 4 µM
- IC20 [7]: 6 µM

- IC50 [5]: 50 µM
Compound: CN(CCO)CC(O)CN1c2ccccc2Sc2ccc(C(F)(F)F)cc21 (stereo unspecified)
- IC50 [4]: 42 µM
- IC20 [6]: 8 µM
- IC20 [7]: 12 µM

Compound: CC1=C(C(=O)Nc2ccc(Cl)c(Cl)c2)C(c2ccc3c(c2)Sc2ccccc2N3)C(C(=O)Nc2ccc(Cl)c(Cl)c2)=C(C)N1
- IC50 [8]: 6.31 µM
- IC50 [9]: 6.31 µM
- IC50 [10]: 6.31 µM
- IC50 [11]: 6.31 µM
- IC50 [12]: 70.5 µM

- IC50 [14]: 0.74 µM
Compound: C(#CCN1c2ccncc2Sc2ncccc21)CN1CCN(c2ccccc2)CC1
- IC50 [13]: 0.45 µM
- IC50 [15]: 4.57 µM

- IC50 [16]: 21.6 µM
- IC50 [17]: 67.3 µM
Compound: CCCCCCCCCCc1nc2cc3c(cc2s1)N(C)c1ccccc1S3
- IC50 [18]: > 2000 µM

Compound: CN1c2ccccc2Sc2cc(/C=C/C(=O)c3ccccc3)ccc21
- Activity [19]: 21%
- Activity [20]: 64%

- IC50 [5]: 100 µM
Compound: CC(=O)c1ccc(N2CCN(CC(O)CN3c4ccccc4Sc4ccc(C(F)(F)F)cc43)CC2)cc1 (stereo unspecified)
- IC50 [4]: 100 µM
- IC20 [6]: 4 µM
- IC20 [7]: 3 µM

- IC50 [22]: 344 µM
Compound: COCCOCCOCCOCCOCCOCCOCCOCCOCCOCCOCCOCCN1c2ccccc2Sc2ccccc21
- Activity [21]: 92%

- IC50 [23]: 22.8 µM
- IC50 [24]: 15.7 µM
Compound: CCN1c2ccccc2Sc2cc(C3NC(=O)NC(C)=C3C(=O)Nc3ccccc3)ccc21 (stereo unspecified)
- IC50 [12]: 83.7 µM

Compound: O=C(Nc1ccc(OCCCN2CCNCC2)cc1)N1c2ccccc2Sc2ccccc21
- IC50 [25]: 13.5 µM
- IC50 [26]: 60.1 µM

Compound: CCCCCCCCCCCCN1c2ccccc2Sc2ccc(C(=O)/C=C/c3ccc(Cl)cc3)cc21
- IC50 [27]: 7.14 µM
- IC50 [28]: 13.8 µM

Compound: COc1cc(OC)c(OC)cc1/C=C/C(=O)c1ccc2c(c1)Nc1ccccc1S2
- CC50 [29]: 311 µM
- CC50 [30]: 8 µM
- CC50 [31]: 4.9 µM

- IC50 [32]: 0.51 µM
- IC50 [35]: 0.25 µM
Compound: Clc1ccc(Cn2cc(CN3c4cccnc4Sc4cccnc43)nn2)cc1
- IC50 [33]: 4.66 µM
- IC50 [34]: 0.25 µM
- IC50 [36]: > 100 µM

Compound: CCCCCCCCCCCCN1c2ccccc2Sc2ccc(C(=O)/C=C/c3cc(OC)c(OC)c(OC)c3)cc21
- IC50 [27]: 7.6 µM
- IC50 [28]: 12 µM

Compound: OCCN1CCN(CCCN2c3ccccc3Sc3ccc(C(F)(F)F)cc32)CC1 [FLUPHENAZINE]
- IC50 [4]: 80 µM
- IC50 [5]: 80 µM
- IC20 [6]: 22 µM
- IC20 [7]: 22 µM
